Values joined by “and” are separate entries in the source; they are usually repeats but may differ in a detail not shown here. Equal entries are not always repeated.
Columns and labels:
[1] = Stability of the five compounds in SD rat plasma (QC samples, UHPLC-ESI-MS/MS); type: in vitro ADME; conditions: for stability, Accuracy (measured versus nominal concentration) / stability, mean ± SD (measured concentration): SD rat plasma, n=5
Description: The method was validated according to the US Food and Drug Administration (FDA) Bioanalytical Method Validation Guidance as follows: [1] specificity was assessed by analyzing blank plasma, blank plasma spiked with standard solutions and rat plasma samples after oral administration. Each calibration curve was plotted using the concentration of the standard solution as the horizontal coordinate and the ratio of analyte to internal standard peak area as the vertical coordinate. The lower limit of quantification (LLOQ) refers to the lowest concentration, which is typically 10 times the signal-to-noise ratio. It has an acceptable accuracy of ± 20% and a precision of less than 20% [3]. Quality Control (QC) samples (low, medium and high concentrations) were prepared for each analyte. Five samples were analyzed at each concentration level and three consecutive batches were determined to calculate the accuracy and precision of the method. Extraction recovery was assessed by the ratio of the average peak area of routinely prepared QC samples (low, medium, and high concentrations) to the post-extraction plasma sample. Likewise, matrix effect was assessed by the ratio of peak areas between post-extraction samples spiked with analytes and mobile phases spiked with the same concentration of analytes.

[2] = male, Sprague Dawley, rat, in vivo
in vivo = conditions: male, Sprague Dawley, rat, po, 352 mg/kg
Caco-2 cells = test: Cytotoxicity in Caco-2 cells, CCK-8 assay; type: cell-based, human; conditions: for Cell survival rate%: mean; for cck-8 mean (survival fraction): mean of 6
Description: Caco-2 cells were cultured in 96-well plates for 48 h at a seeding density of 5.0 × 10^3 cells/well before the addition of drugs. […] The final concentration of DMSO was 0.05% (v/v). Experiments were initiated by replacing the culture medium in each well with 100 μL of sample solutions at 37°C in the CO2 incubator. After 48 h of incubation, the medium was removed and 10 μL of CCK-8 reagent in the serum-free medium was added to each well. The plates were then incubated at 37°C for another 2 h. At the end of the incubation period, the plates were quantified by reading the absorbance at 450 nm on a micro-plate multi-detection instrument, SpectraMax iD3 with SoftMax® Pro (Molecular Devices Corporation Sunnyvale, CA, USA). The percentage of cell viability was calculated based on the absorbance measured relative to the absorbance of cells exposed to the negative control.

P-glycoprotein (P-gp) = target: T1, P-glycoprotein (P-gp) (Homo sapiens, UniProt P08183); test: Rhodamine 123 (P-gp substrate) transport across drug-treated Caco-2 cell monolayers; type: cell-based; conditions: co-incubated with R123, 10 μM, Caco-2 monolayer, Fig 6
T1 construct: The transport of R123 in normal Caco-2 cell monolayers or drug-treated Caco-2 cell monolayers was further studied; host or cells: Caco-2
T1 sequence (P08183 whole entry): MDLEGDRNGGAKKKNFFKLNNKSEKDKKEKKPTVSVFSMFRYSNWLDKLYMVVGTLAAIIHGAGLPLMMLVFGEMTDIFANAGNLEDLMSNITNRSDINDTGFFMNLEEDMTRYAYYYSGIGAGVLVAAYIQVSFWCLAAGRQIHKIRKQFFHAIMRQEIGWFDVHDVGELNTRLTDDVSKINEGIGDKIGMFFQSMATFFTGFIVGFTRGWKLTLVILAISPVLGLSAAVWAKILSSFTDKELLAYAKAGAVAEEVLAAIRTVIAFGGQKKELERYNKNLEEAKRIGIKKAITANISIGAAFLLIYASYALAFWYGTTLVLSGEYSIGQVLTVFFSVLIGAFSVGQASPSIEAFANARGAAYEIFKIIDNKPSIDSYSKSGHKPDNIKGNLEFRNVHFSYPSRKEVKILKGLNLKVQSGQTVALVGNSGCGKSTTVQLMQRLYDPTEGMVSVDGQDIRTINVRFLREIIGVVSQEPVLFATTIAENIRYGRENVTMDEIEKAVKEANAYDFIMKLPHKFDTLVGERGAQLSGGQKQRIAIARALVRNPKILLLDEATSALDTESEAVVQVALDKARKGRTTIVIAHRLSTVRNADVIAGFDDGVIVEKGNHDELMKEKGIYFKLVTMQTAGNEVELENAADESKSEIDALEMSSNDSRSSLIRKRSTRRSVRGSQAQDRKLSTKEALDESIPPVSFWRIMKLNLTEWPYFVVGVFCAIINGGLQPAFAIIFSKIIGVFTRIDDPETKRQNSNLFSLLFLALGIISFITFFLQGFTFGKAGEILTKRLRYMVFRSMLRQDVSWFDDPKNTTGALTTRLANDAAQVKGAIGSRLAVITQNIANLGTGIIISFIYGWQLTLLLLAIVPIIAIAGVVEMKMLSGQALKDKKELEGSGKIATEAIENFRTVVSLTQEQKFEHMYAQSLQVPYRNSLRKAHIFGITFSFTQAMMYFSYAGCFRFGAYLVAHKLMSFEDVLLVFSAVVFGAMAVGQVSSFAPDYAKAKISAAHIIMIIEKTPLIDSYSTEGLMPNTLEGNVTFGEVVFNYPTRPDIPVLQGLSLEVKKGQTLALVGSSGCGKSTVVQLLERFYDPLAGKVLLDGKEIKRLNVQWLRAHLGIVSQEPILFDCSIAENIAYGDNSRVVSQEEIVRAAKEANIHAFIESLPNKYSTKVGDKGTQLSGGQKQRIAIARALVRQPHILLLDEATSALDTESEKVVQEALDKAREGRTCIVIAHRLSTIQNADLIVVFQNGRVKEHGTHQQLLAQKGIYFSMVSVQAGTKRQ
Description: The human epithelial cell line Caco-2 serves as a widely recognized model for the intestinal epithelial barrier, frequently utilized in the assessment of drug absorption and transport mechanisms. In this study, we evaluated drug absorption and distribution in vitro with the help of the Caco-2 cell model. Caco-2 cells were purchased from the Chinese Academy of Medical Sciences (Beijing, China, Resource No. 3111C0001CCC000100). The cells were resuscitated and inserted into culture flasks. Caco-2 cells were passaged with DMEM high glucose medium containing 10% (V/V) FBS, 1% (V/V) non-essential amino acid solution and 100 U/mL penicillin-streptomycin double antibiotic solution, and cultured at 37°C in a 5% CO2 incubator. […] The integrity of the cell monolayer was checked by measuring the transmembrane electrical resistance (TEER) of the monolayer cells with a Millicell-ERS electrode (Millipore Corp., Billerica, MA, USA). Caco-2 cells were used for transport experiments 17–21 days after inoculation. Besides, only monolayers with TEER values above 400 Ω/cm^2 were used in the study.
The transport of R123 in normal Caco-2 cell monolayers or drug-treated Caco-2 cell monolayers was further studied. […] The transport buffer containing 5 μM of R123 was added on either the AP or the BL side of the inserts, as described above. […] The concentrations of R123 were immediately analyzed by SpectraMax iD3. The excitation wavelength was set at 485 nm, and the emission wavelength at 535 nm. Papp values across the cell monolayers were calculated according to the equation: Papp = dQ/dt × 1/(A × C0), where dQ/dt represents the rate of drug transport. […] The efflux ratio was calculated using the Papp (BL-AP) to Papp (AP-BL) ratio.

CYP3A4 = conditions: read-out: IC50 of CYP3A4 inhibition; cited from earlier work
[3] = nominal 160 ng/mL, 3 freeze-thaw cycles
[4] = nominal 160 ng/mL, 7 days at -80°C
[5] = nominal 160 ng/mL, Room temperature 24h
[6] = nominal 1000 ng/mL, 3 freeze-thaw cycles
[7] = nominal 1000 ng/mL, 7 days at -80°C
[8] = nominal 1000 ng/mL, Room temperature 24h
[9] = nominal 5000 ng/mL, 3 freeze-thaw cycles
[10] = nominal 5000 ng/mL, 7 days at -80°C
[11] = nominal 5000 ng/mL, Room temperature 24h
[12] = Caco-2, concentration 10 μmol/L
[13] = Caco-2, concentration 20 μmol/L
[14] = Caco-2, concentration 40 μmol/L
[15] = Caco-2, concentration 80 μmol/L

CC1=C[C@H]2[C@@H](CC1)[C@H](C)CC[C@H]2[C@@H](C)C(=O)O [DHAA, Dihydroartemisinic acid]
Stability, measured concentration, mean ± SD ([1]; QC sample 160 ng/mL, 3 freeze-thaw cycles): 161 ± 10.8 ng/mL and 160.872 ng/mL | Stability, measured concentration, mean ± SD ([1]; QC sample 160 ng/mL, 7 days at -80°C): 149 ± 5.80 ng/mL and 149.16 ng/mL | Stability, measured concentration, mean ± SD ([1]; QC sample 160 ng/mL, Room temperature 24h): 151 ± 5.81 ng/mL and 151.046 ng/mL | Stability, measured concentration, mean ± SD ([1]; QC sample 1000 ng/mL, 3 freeze-thaw cycles): 914 ± 35.7 ng/mL and 914.334 ng/mL | Stability, measured concentration, mean ± SD ([1]; QC sample 1000 ng/mL, 7 days at -80°C): 1064 ± 21.4 ng/mL and 1063.64 ng/mL | Stability, measured concentration, mean ± SD ([1]; QC sample 1000 ng/mL, Room temperature 24h): 959.663 ng/mL and 960 ± 45.4 ng/mL | Stability, measured concentration, mean ± SD ([1]; QC sample 5000 ng/mL, 3 freeze-thaw cycles): 4813 ± 108 ng/mL and 4813.44 ng/mL | Stability, measured concentration, mean ± SD ([1]; QC sample 5000 ng/mL, 7 days at -80°C): 4814 ± 118 ng/mL and 4813.94 ng/mL | Stability, measured concentration, mean ± SD ([1]; QC sample 5000 ng/mL, Room temperature 24h): 5079.03 ng/mL and 5079 ± 336 ng/mL | stability, Accuracy (measured versus nominal concentration) [1, 3]: 100.54% | stability, mean ± SD (measured concentration) [1, 3]: 161 ± 10.8 ng/mL | stability, Accuracy (measured versus nominal concentration) [1, 4]: 93.23% | stability, mean ± SD (measured concentration) [1, 4]: 149 ± 5.80 ng/mL | stability, Accuracy (measured versus nominal concentration) [1, 5]: 94.40% | stability, mean ± SD (measured concentration) [1, 5]: 151 ± 5.81 ng/mL | stability, Accuracy (measured versus nominal concentration) [1, 6]: 91.43% | stability, mean ± SD (measured concentration) [1, 6]: 914 ± 35.7 ng/mL | stability, Accuracy (measured versus nominal concentration) [1, 7]: 106.36% | stability, mean ± SD (measured concentration) [1, 7]: 1064 ± 21.4 ng/mL | stability, Accuracy (measured versus nominal concentration) [1, 8]: 95.97% | stability, mean ± SD (measured concentration) [1, 8]: 960 ± 45.4 ng/mL | stability, Accuracy (measured versus nominal concentration) [1, 9]: 96.27% | stability, mean ± SD (measured concentration) [1, 9]: 4813 ± 108 ng/mL | stability, Accuracy (measured versus nominal concentration) [1, 10]: 96.28% | stability, mean ± SD (measured concentration) [1, 10]: 4814 ± 118 ng/mL | stability, Accuracy (measured versus nominal concentration) [1, 11]: 101.58% | stability, mean ± SD (measured concentration) [1, 11]: 5079 ± 336 ng/mL | CLz [2]: 24 mL/day/kg | CL ([2]; po, 352 mg/kg): 0.001 ± 0.001 L/h | Vz ([2]; po, 352 mg/kg): 0.005 ± 0.001 L | AUC(0-inf) (in vivo): 29700 ± 6700 ng·h/mL | AUC(0-t) (in vivo): 28700 ± 6660 ng·h/mL | Cmax (in vivo; Cmax): 10400 ± 2440 ng/mL | MRT inf (in vivo; MRT(0-∞)): 6.08 ± 1.27 h | half-life (in vivo; t1/2): 4.64 ± 1.18 h | half-life (in vivo; t1/2z): 3.97 h | Cell survival rate%, single replicate (Caco-2 cells; Caco-2, 5μmol/L): 84.02% and 84.22% and 87.64% and 85.87% and 89.84% and 87.8% | Cell survival rate%, single replicate (Caco-2 cells; Caco-2, 10μmol/L): 84.68% and 88.84% and 86.58% and 89.08% and 86.49% and 80.21% | Cell survival rate%, single replicate (Caco-2 cells; Caco-2, 20μmol/L): 84.63% and 81.53% and 85.05% and 89.44% and 83.52% and 78.29% | Cell survival rate%, single replicate (Caco-2 cells; Caco-2, 40μmol/L): 84.99% and 84.53% and 82.56% and 83.98% and 80.6% and 81.3% | Cell survival rate%, single replicate (Caco-2 cells; Caco-2, 80μmol/L): 80.04% and 80.37% and 80.83% and 80.86% and 80.51% and 80.11% | cck-8 cell survival as fraction, single replicate (Caco-2 cells; Caco-2, concentration 5 μmol/L): 0.8402 and 0.8422 and 0.8764 and 0.8587 and 0.8984 and 0.878 | Cell survival rate% (Caco-2 cells; Caco-2, concentration 5 μmol/L): 86.56% | cck-8 mean (survival fraction) (Caco-2 cells; Caco-2, concentration 5 μmol/L): 0.87 | cck-8 cell survival as fraction, single replicate (Caco-2 cells; [12]): 0.8468 and 0.8884 and 0.8658 and 0.8908 and 0.8649 and 0.8021 | Cell survival rate% (Caco-2 cells; [12]): 85.98% | cck-8 mean (survival fraction) (Caco-2 cells; [12]): 0.86 | cck-8 cell survival as fraction, single replicate (Caco-2 cells; [13]): 0.8463 and 0.8153 and 0.8505 and 0.8944 and 0.8352 and 0.7829 | Cell survival rate% (Caco-2 cells; [13]): 83.74% | cck-8 mean (survival fraction) (Caco-2 cells; [13]): 0.84 | cck-8 cell survival as fraction, single replicate (Caco-2 cells; [14]): 0.8499 and 0.8453 and 0.8256 and 0.8398 and 0.806 and 0.813 | Cell survival rate% (Caco-2 cells; [14]): 82.99% | cck-8 mean (survival fraction) (Caco-2 cells; [14]): 0.83 | cck-8 cell survival as fraction, single replicate (Caco-2 cells; [15]): 0.8004 and 0.8037 and 0.8083 and 0.8086 and 0.8051 and 0.8011 | Cell survival rate% (Caco-2 cells; [15]): 80.45% | cck-8 mean (survival fraction) (Caco-2 cells; [15]): 0.80 | reduction of R123 transport from the BL side to the AP side (P-glycoprotein (P-gp)): 45.21%

C=C1C(=O)O[C@@]23[C@H]1CC[C@@H](C)[C@@H]2CC[C@@]1(C)O[C@@H]31 [arteannuin B]
IC50 (CYP3A4): 1.2 µM

Reference: article PMC12058161, “The plant matrix of Artemisia annua L. for the treatment of malaria: Pharmacodynamic and pharmacokinetic studies” (PLOS One, 2025)
